The conditions of series [1]: 298.2 K; 101.33 kPa; Liquid; Vibrating tube method.
A short description of series [2]: refractive index (Na D-line) (dimensionless). The settings on record: 298.2 K; 101.33 kPa; Liquid; Standard Abbe refractometry.

Molecules are shown by their SMILES. ± gives the expanded uncertainty stated by the source.

As a reminder, the mass density is mass per unit of volume. In general, refractive index refers to a measure of how strongly the sample bends light. Regarding `CCCO` [propan-1-ol], the mass density in series [1] was 799.62 ± 0.24 kg/m3. Further, the refractive index in series [2] was 1.3835 ± 0.0007.

As for `CC(C)OC(C)C` [diisopropyl ether], the mass density in series [1] is listed as 718.79 ± 0.3 kg/m3. In addition, the refractive index in series [2] was determined as 1.3653 ± 0.0007.

The values above are taken from the NIST ThermoML archive (doi:10.1016/j.fluid.2008.11.014).
